Experimental data reported in ChEMBL document CHEMBL1201862, “PubChem BioAssay data set” (2004).
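Five compound concentrations were applied to cells in 96-well plates for 48 hours; endpoints were derived by simple linear interpolation of the resulting dose-response curve. GI50: concentration for 50% inhibition of growth.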 The source made the active and inactive calls. Cut-off read from the data, not from the text of the source: active = GI50 up to about 1.1 µM and inactive = higher.

Experiments:
Assay in all cases: NCI anticancer screen, dose series, 48 h
[1] = test system: COLO 205
[2] = test system: MCF7
[3] = test system: Hs-578T
[4] = test system: NCI/ADR-RES
[5] = test system: SF-539
[6] = test system: MDA-N
[7] = test system: Malme-3M
[8] = test system: TK-10
[9] = test system: HCC 2998
[10] = test system: NCI-H460
[11] = test system: OVCAR-3
[12] = test system: UACC-257
[13] = test system: RXF 393
[14] = test system: BT-549
[15] = test system: KM12
[16] = test system: SF-295
[17] = test system: SK-MEL-28
[18] = test system: HCT-116
[19] = test system: SK-MEL-5
[20] = test system: MOLT-4

Measured: GI50

O=C(O)C[S+]([O-])c1ccc2c3c(cccc13)C(=O)c1ccccc1-2 (stereo not drawn)
inactive: [1] > 100 µM | [2] > 100 µM | [3] > 100 µM | [4] > 100 µM | [5] > 100 µM | [6] > 100 µM | [7] > 100 µM | [8] > 100 µM | [9] > 100 µM | [10] > 100 µM | [11] > 100 µM | [12] > 100 µM | [13] > 100 µM | [14] > 100 µM | [15] > 100 µM | [16] > 100 µM | [17] > 100 µM | [18] > 100 µM | [19] > 100 µM

CCCCCCCCCCCC1NC(N)=NC(CCCO)=C1C(=O)OC (stereo not drawn)
inactive: [1] 1.88 µM | [2] 1.79 µM | [3] 1.92 µM | [4] 17.7 µM | [5] 2.96 µM | [6] 2.44 µM | [7] 5.12 µM | [8] 2.23 µM | [9] 2.35 µM | [10] 1.94 µM | [11] 2.37 µM | [12] 3.16 µM | [14] 4.67 µM | [15] 1.61 µM | [16] 2.93 µM | [20] 1.86 µM | [18] 1.92 µM | [19] 2.24 µM

COc1ccc2oc(=N)c(C(=O)Nc3cccc4ccccc34)cc2c1
active: [6] 0.456 µM
inactive: [1] > 100 µM | [2] 5.7 µM | [3] 30.2 µM | [4] 25.8 µM | [5] 15.3 µM | [7] 8.65 µM | [8] 19.6 µM | [9] 58.7 µM | [10] 3.95 µM | [11] 10.4 µM | [12] 32 µM | [13] 4.69 µM | [14] 55.7 µM | [15] 27.7 µM | [16] 5.41 µM | [17] > 100 µM | [18] 27.7 µM | [19] > 100 µM

CC(=O)c1cccn1/C=C(\OC(=O)OC(C)(C)C)c1ccc[nH]1
inactive: [1] 89.7 µM | [2] 76.4 µM | [3] > 100 µM | [4] 50.2 µM | [6] 81.8 µM | [7] > 100 µM | [8] > 100 µM | [9] > 100 µM | [10] > 100 µM | [11] 46.6 µM | [12] > 100 µM | [13] 33.8 µM | [14] 60.7 µM | [15] 46.3 µM | [16] 39.4 µM | [17] 96.6 µM | [20] 48.2 µM | [18] 41.3 µM | [19] 40.3 µM

O=S(=O)(Nc1ccccc1S(=O)(=O)c1ccccc1)c1ccccc1
inactive: [1] 38.1 µM | [2] > 100 µM | [3] 51.9 µM | [4] 57.1 µM | [5] > 100 µM | [6] > 100 µM | [7] 69.5 µM | [8] > 100 µM | [9] 44.6 µM | [11] 65.6 µM | [12] 73.1 µM | [13] > 100 µM | [14] 63.1 µM | [15] 56.8 µM | [16] 94.4 µM | [17] > 100 µM | [20] 65.8 µM | [18] 77.1 µM | [19] 58.6 µM

CN1C(=O)c2ccccc2NC(=O)C12O[C@@H]2c1ccccc1 (stereo partly drawn)
inactive: [1] > 100 µM | [2] > 100 µM | [3] > 100 µM | [4] > 100 µM | [5] > 100 µM | [6] > 100 µM | [7] > 100 µM | [8] > 100 µM | [9] > 100 µM | [10] > 100 µM | [11] > 100 µM | [12] > 100 µM | [14] > 100 µM | [15] > 100 µM | [16] > 100 µM | [17] > 100 µM | [20] > 100 µM | [18] > 100 µM | [19] > 100 µM

Cc1cc(=O)oc2c3c(ccc12)OC(c1ccc(Br)cc1)CC3=O (stereo not drawn)
inactive: [1] 12.7 µM | [2] 4.27 µM | [3] 2.56 µM | [4] 12.5 µM | [5] 9.98 µM | [6] 8.13 µM | [7] 6.43 µM | [8] 13.7 µM | [9] 14.6 µM | [10] 15 µM | [11] 10.8 µM | [12] 13.1 µM | [14] 3.03 µM | [15] 13.9 µM | [16] 10.7 µM | [17] 8.67 µM | [20] 1.79 µM | [18] 10.3 µM | [19] 11.6 µM

C=CC(C)(C)N[C@@H](C(=O)N1CCC[C@H]1c1nc(-c2nc(C(=O)OCC=C(C)C)c(C)o2)c(C)o1)C(C)C
inactive: [1] 22.4 µM | [2] 23.4 µM | [3] 18 µM | [4] 22.6 µM | [5] 16.3 µM | [6] 18 µM | [7] 18.6 µM | [8] 24.3 µM | [9] 18.9 µM | [10] 24 µM | [11] 23.1 µM | [12] 20.5 µM | [13] 30.7 µM | [14] 23.6 µM | [15] 23 µM | [16] 20.1 µM | [17] 18.5 µM | [20] 15.2 µM | [18] 17.8 µM | [19] 22.3 µM

COc1ccc(C2C(C(=O)c3ccccc3)=C(O)C(O)(CC(=O)c3ccccc3)N2c2ccc(OC)cc2)cc1 (stereo not drawn)
inactive: [1] 17.6 µM | [2] 11.9 µM | [3] 28.6 µM | [4] 12.5 µM | [5] 24.4 µM | [6] 20.9 µM | [7] 28 µM | [8] 16.3 µM | [9] 11.1 µM | [10] 24.4 µM | [11] 7.67 µM | [12] 7.94 µM | [13] 9.38 µM | [14] 7.55 µM | [15] 11.2 µM | [16] 12.3 µM | [17] 28.6 µM | [20] 12.5 µM | [18] 9.29 µM | [19] 9.57 µM

O=c1/c(=C/c2ccc(-c3ccc(Cl)cc3Cl)o2)sc2n1[C@@H](c1ccc(Cl)cc1)C=C(c1cc(F)c(Cl)cc1Cl)N=2
inactive: [1] 78.5 µM | [2] 33.5 µM | [3] 29.6 µM | [4] 50.8 µM | [5] 34.8 µM | [6] 53.8 µM | [7] > 100 µM | [8] 13.4 µM | [9] 12.8 µM | [10] 60.3 µM | [12] 34.6 µM | [13] 31.2 µM | [14] 45.8 µM | [15] 87.5 µM | [16] 53.2 µM | [17] > 100 µM | [20] 22.4 µM | [18] 37.9 µM | [19] 46.5 µM

CC(C)(C)n1c(=O)[nH]n(C2NN=Cc3cccc4cccc2c34)c1=O (stereo not drawn)
inactive: [1] 30 µM | [2] 30.6 µM | [3] 39.4 µM | [4] 32.8 µM | [5] 16.9 µM | [6] 26.4 µM | [7] 36 µM | [8] 41.3 µM | [9] 39.5 µM | [10] 30.1 µM | [11] 51.9 µM | [12] 54.3 µM | [13] 10.9 µM | [14] 21.9 µM | [15] 34 µM | [17] 57.3 µM | [20] 20.8 µM | [18] 38.5 µM

c1ccc2c(-c3cnc(-c4c[nH]c5ccccc45)cn3)c[nH]c2c1
inactive: [1] 34.4 µM | [2] 6.61 µM | [3] 57.8 µM | [4] 74.5 µM | [5] 23.6 µM | [6] 19.1 µM | [7] 38.9 µM | [8] 47.1 µM | [9] 42.6 µM | [10] 46.9 µM | [11] 27.2 µM | [12] 43.4 µM | [13] 26.7 µM | [14] > 100 µM | [15] 74.1 µM | [16] 20.2 µM | [17] 35.6 µM | [18] 5.2 µM | [19] 50.1 µM

CC(=O)OC(C)c1cc2c(s1)C(=O)c1scc(C(C)OC(C)=O)c1C2=O (stereo not drawn)
active: [1] 0.512 µM | [2] 0.251 µM | [3] 0.339 µM | [4] 0.255 µM | [5] 0.175 µM | [6] 0.0817 µM | [7] 0.139 µM | [8] 0.571 µM | [9] 0.317 µM | [10] 0.167 µM | [11] 0.307 µM | [12] 0.174 µM | [13] 0.301 µM | [14] 0.218 µM | [15] 0.195 µM | [16] 0.164 µM | [17] 0.226 µM | [20] 0.324 µM | [18] 0.285 µM | [19] 0.0653 µM

CN(C)CCNc1ccc(CO)c2oc3ccc(O)cc3c(=O)c12
inactive: [1] 8.97 µM | [2] 4.83 µM | [3] 14 µM | [4] 21.3 µM | [5] 12.3 µM | [6] 12.8 µM | [7] 13.5 µM | [8] 17.1 µM | [9] 14 µM | [10] 4.24 µM | [11] 16.5 µM | [12] 12.8 µM | [13] 12.6 µM | [14] 14.6 µM | [15] 14.4 µM | [16] 14.2 µM | [17] 16.9 µM | [20] 2.47 µM | [18] 6.4 µM | [19] 14.2 µM
